Values after ≈ are worked out from the molar mass of the structure shown. Where two headings read alike, the source gives them in different places.
Tests used:
S. aureus = assay: MIC assay, S. aureus; format: cell-based, Staphylococcus aureus
S. pneumo. = assay: MIC assay, S. pneumo.; format: cell-based, Streptococcus pneumoniae
H. flu = format: cell-based, H. influenza
E. faecalis = assay: MIC assay, E. faecalis; format: cell-based, Enterococcus faecalis
E coli = assay: MIC assay, E coli; format: cell-based

Compound | MIC (μg/mL) S. aureus (S. aureus) [µg/mL] | MIC (μg/mL) S. pneumo. (S. pneumo.) [µg/mL] | MIC (μg/mL) H. flu (H. flu; H. flu) [µg/mL] | MIC (μg/mL) E. faecalis (E. faecalis) [µg/mL] | MIC (μg/mL) E coli (E coli) [µg/mL] | MIC (μg/mL) H. flu (H. flu) [µg/mL]
COC1C=COC2(C)Oc3c(C)c(O)c4c(=O)c(c5oc6cc(N7CC(C)NC(C)C7)cc(O)c6nc-5c4c3C2=O)NC(=O)C(C)=CC=CC(C)C(O)C(C)C(O)C(C)C(O)C1C (stereo not drawn) [Compound 87] | 0.008 (≈ 0.00918 µM) | 0.0005 (≈ 0.000574 µM) | 0.25 (≈ 0.287 µM) | 0.06 (≈ 0.0689 µM) | 4 (≈ 4.59 µM) | –
CCC1CN(c2cc(O)c3nc4c5c6c7c(C)c(O)c5c(=O)c(c-4oc3c2)NC(=O)C(C)=CC=CC(C)C(O)C(C)C(O)C(C)C(O)C(C)C(OC)C=COC(C)(O7)C6=O)CC(CC)N1 (stereo not drawn) [Compound 88] | 0.03 (≈ 0.0334 µM) | 0.0005 (≈ 0.000556 µM) | 0.25 (≈ 0.278 µM) | 0.12 (≈ 0.133 µM) | 4 (≈ 4.45 µM) | –
COCCN1CCN(c2cc(O)c3nc4c5c6c7c(C)c(O)c5c(=O)c(c-4oc3c2)NC(=O)C(C)=CC=CC(C)C(O)C(C)C(O)C(C)C(O)C(C)C(OC)C=COC(C)(O7)C6=O)CC1 (stereo not drawn) [Compound 89] | 0.004 (≈ 0.00444 µM) | 0.00025 (≈ 0.000277 µM) | 0.25 (≈ 0.277 µM) | 0.12 (≈ 0.133 µM) | 8 (≈ 8.88 µM) | –
CCC1CN(c2cc(O)c3nc4c5c6c7c(C)c(O)c5c(=O)c(c-4oc3c2)NC(=O)C(C)=CC=CC(C)C(O)C(C)C(O)C(C)C(O)C(C)C(OC)C=COC(C)(O7)C6=O)CC(C)N1 (stereo not drawn) [Compound 90] | 0.004 (≈ 0.00452 µM) | 0.00012 (≈ 0.000136 µM) | 0.25 (≈ 0.282 µM) | 0.5 (≈ 0.565 µM) | 4 (≈ 4.52 µM) | –
CCOc1c(N2CCN(CC)CC2)ccc2nc3c4c5c6c(C)c(O)c4c(=O)c(c-3oc12)NC(=O)C(C)=CC=CC(C)C(O)C(C)C(O)C(C)C(O)C(C)C(OC)C=COC(C)(O6)C5=O (stereo not drawn) [Compound 91] | 0.008 (≈ 0.0089 µM) | 0.0005 (≈ 0.000556 µM) | 0.25 (≈ 0.278 µM) | 0.5 (≈ 0.556 µM) | 8 (≈ 8.9 µM) | –
CCOc1c(N2CCN(CCOC)CC2)cc(N2CCN(CCOC)CC2)c2nc3c4c5c6c(C)c(O)c4c(=O)c(c-3oc12)NC(=O)C(C)=CC=CC(C)C(O)C(C)C(O)C(C)C(O)C(C)C(OC)C=COC(C)(O6)C5=O (stereo not drawn) [Compound 92] | 0.12 (≈ 0.112 µM) | 0.001 (≈ 0.000933 µM) | 2 (≈ 1.87 µM) | 8 (≈ 7.47 µM) | >8 | –
CCOc1c(N2CCN(CCOC)CC2)ccc2nc3c4c5c6c(C)c(O)c4c(=O)c(c-3oc12)NC(=O)C(C)=CC=CC(C)C(O)C(C)C(O)C(C)C(O)C(C)C(OC)C=COC(C)(O6)C5=O (stereo not drawn) [Compound 93] | 0.015 (≈ 0.0161 µM) | 0.005 (≈ 0.00538 µM) | 0.5 (≈ 0.538 µM) | 1 (≈ 1.08 µM) | >8 | –
COC1C=COC2(C)Oc3c(C)c(O)c4c(=O)c(c5n(C)c6cc(N7CC(C)NC(C)C7)ccc6nc-5c4c3C2=O)NC(=O)C(C)=CC=CC(C)C(O)C(C)C(O)C(C)C(O)C1C (stereo not drawn) [Compound 94] | 1 (≈ 1.15 µM) | 2 (≈ 2.3 µM) | 4 (≈ 4.61 µM) | >8 | >8 | –
COC1C=COC2(C)Oc3c(C)c(O)c4c(=O)c(c5oc6cc(N7CCN(C8CCN(C)CC8)CC7)cc(O)c6nc-5c4c3C2=O)NC(=O)C(C)=CC=CC(C)C(O)C(C)C(O)C(C)C(O)C1C (stereo not drawn) [Compound 95] | 0.015 (≈ 0.016 µM) | 0.002 (≈ 0.00213 µM) | 1 (≈ 1.06 µM) | 0.5 (≈ 0.532 µM) | >8 | –
COC1C=COC2(C)Oc3c(C)c(O)c4c(=O)c(c5oc6cc(N7CCN(CC8CC8)CC7)cc(O)c6nc-5c4c3C2=O)NC(=O)C(C)=CC=CC(C)C(O)C(C)C(O)C(C)C(O)C1C (stereo not drawn) [Compound 96] | 0.008 (≈ 0.00892 µM) | 0.0005 (≈ 0.000557 µM) | 0.25 (≈ 0.279 µM) | 0.06 (≈ 0.0669 µM) | 2 (≈ 2.23 µM) | –
COC1C=COC2(C)Oc3c(C)c(O)c4c(=O)c(c5oc6cc(N7CC(C)NCC7C)cc(O)c6nc-5c4c3C2=O)NC(=O)C(C)=CC=CC(C)C(O)C(C)C(O)C(C)C(O)C1C (stereo not drawn) [Compound 97] | 0.004 (≈ 0.00459 µM) | 0.0005 (≈ 0.000574 µM) | 0.25 (≈ 0.287 µM) | 0.12 (≈ 0.138 µM) | 4 (≈ 4.59 µM) | –
COC1C=COC2(C)Oc3c(C)c(O)c4c(=O)c(c5oc6cc(N7CCN(CCO)CC7)cc(O)c6nc-5c4c3C2=O)NC(=O)C(C)=CC=CC(C)C(O)C(C)C(O)C(C)C(O)C1C (stereo not drawn) [Compound 98] | 0.008 (≈ 0.00902 µM) | 0.0005 (≈ 0.000564 µM) | 0.25 (≈ 0.282 µM) | 0.12 (≈ 0.135 µM) | 8 (≈ 9.02 µM) | –
COC1C=COC2(C)Oc3c(C)c(O)c4c(=O)c(c5oc6cc(N7CCN(c8ccccc8)CC7)cc(O)c6nc-5c4c3C2=O)NC(=O)C(C)=CC=CC(C)C(O)C(C)C(O)C(C)C(O)C1C (stereo not drawn) [Compound 99] | 0.004 (≈ 0.00435 µM) | 0.001 (≈ 0.00109 µM) | 0.25 (≈ 0.272 µM) | 0.06 (≈ 0.0653 µM) | 4 (≈ 4.35 µM) | –
COC1C=COC2(C)Oc3c(C)c(O)c4c(=O)c(c5oc6cc(N7CCN(CCN(C)C)CC7)cc(O)c6nc-5c4c3C2=O)NC(=O)C(C)=CC=CC(C)C(O)C(C)C(O)C(C)C(O)C1C (stereo not drawn) [Compound 100] | 0.03 (≈ 0.0328 µM) | 0.008 (≈ 0.00875 µM) | 0.12 (≈ 0.131 µM) | 0.5 (≈ 0.547 µM) | >8 | –
COC1C=COC2(C)Oc3c(C)c(O)c4c(=O)c(c5sc6cc(N7CCN(C)CC7)ccc6nc-5c4c3C2=O)NC(=O)C(C)=CC=CC(C)C(O)C(C)C(O)C(C)C(O)C1C (stereo not drawn) [Compound 101] | 0.002 (≈ 0.00233 µM) | 0.00012 (≈ 0.00014 µM) | 0.12 (≈ 0.14 µM) | 0.12 (≈ 0.14 µM) | 2 (≈ 2.33 µM) | –
COC1C=COC2(C)Oc3c(C)c(O)c4c(=O)c(c5oc6cc(N7CCNCC7)cc(O)c6nc-5c4c3C2=O)NC(=O)C(C)=CC=CC(C)C(O)C(C)C(O)C(C)C(O)C1C (stereo not drawn) [Compound 104] | 0.008 (≈ 0.00949 µM) | 0.002 (≈ 0.00237 µM) | – | 0.06 (≈ 0.0712 µM) | 4 (≈ 4.75 µM) | 0.12 (≈ 0.142 µM)
CCOc1c(N2CCN(CC3CC3)CC2)ccc2nc3c4c5c6c(C)c(O)c4c(=O)c(c-3oc12)NC(=O)/C(C)=C\C=C\[C@H](C)[C@H](O)[C@@H](C)[C@@H](O)[C@@H](C)[C@H](O)[C@H](C)[C@@H](OC)/C=C/O[C@@](C)(O6)C5=O [Compound 105] | 0.03 (≈ 0.0324 µM) | 0.015 (≈ 0.0162 µM) | 1 (≈ 1.08 µM) | 0.5 (≈ 0.54 µM) | >8 | –
CO[C@H]1/C=C/O[C@@]2(C)Oc3c(C)c(O)c4c(=O)c(c5oc6c(F)c(N7CCN(CC(C)C)CC7)ccc6nc-5c4c3C2=O)NC(=O)/C(C)=C\C=C\[C@H](C)[C@H](O)[C@@H](C)[C@@H](O)[C@@H](C)[C@H](O)[C@@H]1C [Compound 106] | 0.03 (≈ 0.0333 µM) | 0.008 (≈ 0.00888 µM) | 0.5 (≈ 0.555 µM) | 0.5 (≈ 0.555 µM) | 8 (≈ 8.88 µM) | –
COC1C=COC2(C)Oc3c(C)c(O)c4c(=O)c(c5oc6cc(N7CCN(C(=O)C8CC8)CC7)cc(O)c6nc-5c4c3C2=O)NC(=O)C(C)=CC=CC(C)C(O)C(C)C(O)C(C)C(O)C1C (stereo not drawn) [Compound 107] | 0.015 (≈ 0.0165 µM) | 0.004 (≈ 0.00439 µM) | 0.25 (≈ 0.274 µM) | 0.5 (≈ 0.549 µM) | 8 (≈ 8.78 µM) | –
CCc1cc2nc3c4c5c6c(C)c(O)c4c(=O)c(c-3oc2cc1N1CCCCC1)NC(=O)/C(C)=C\C=C\[C@H](C)[C@H](O)[C@@H](C)[C@@H](O)[C@@H](C)[C@H](O)[C@H](C)[C@@H](OC)/C=C/O[C@@](C)(O6)C5=O [Compound 108] | 1 (≈ 1.17 µM) | 0.12 (≈ 0.141 µM) | 2 (≈ 2.34 µM) | 4 (≈ 4.68 µM) | 1 (≈ 1.17 µM) | –
CO[C@H]1/C=C/O[C@@]2(C)Oc3c(C)c(O)c4c(=O)c(c5oc6cc(N7CCC(C(N)=O)CC7)cc(O)c6nc-5c4c3C2=O)NC(=O)/C(C)=C\C=C\[C@H](C)[C@H](O)[C@@H](C)[C@@H](O)[C@@H](C)[C@H](O)[C@@H]1C [Compound 109] | 0.03 (≈ 0.0339 µM) | 0.002 (≈ 0.00226 µM) | 0.25 (≈ 0.282 µM) | 1 (≈ 1.13 µM) | >8 | –
